Like-named read-outs stand apart in the source and are kept apart here.
What was measured:
seven cancer lines = experiment: Cancer cell proliferation assay; assay type: cell-based; conditions: for IC50: read-out: IC50 for inhibition of proliferation
CB-R-HCT116 cells = experiment: Western blot of UPR / p97 inhibition biomarkers, CB-R-HCT116; assay type: cell-based; conditions: CB-R-HCT116, 10 μM, 6 hours
[1] = molecular target: p97 D649A/T688A double mutant; experiment: p97 ATPase activity assay, D649A/T688A double mutant; assay type: biochemical; conditions: protein concentration and reaction time each increased 4-fold
[2] = test system: CB-R-HCT116 cells (p97 D649A/T688A); experiment: Cell proliferation, CB-5083 resistant HCT116 versus parental HCT116; assay type: cell-based; conditions: for sensitivity of CB-R-HCT116 compared with parental HCT116: cell proliferation
HCT116 cells = conditions: HCT116, 2.5 μM, 6 hours
[3] = test system: CB-5083 resistant p97 mutants; experiment: p97 ATPase activity assay, panel of CB-5083 resistant mutants; assay type: biochemical; conditions: among CB-5083 resistant mutants
p97 ATPase = p97 ATPase (Homo sapiens, UniProt P55072); experiment: Steady-state kinetic analysis of p97 ATPase inhibition; assay type: biochemical; conditions: ten ATP concentrations, 2 or 3 inhibitor concentrations
p97 ATPase, sequence (P55072 whole entry): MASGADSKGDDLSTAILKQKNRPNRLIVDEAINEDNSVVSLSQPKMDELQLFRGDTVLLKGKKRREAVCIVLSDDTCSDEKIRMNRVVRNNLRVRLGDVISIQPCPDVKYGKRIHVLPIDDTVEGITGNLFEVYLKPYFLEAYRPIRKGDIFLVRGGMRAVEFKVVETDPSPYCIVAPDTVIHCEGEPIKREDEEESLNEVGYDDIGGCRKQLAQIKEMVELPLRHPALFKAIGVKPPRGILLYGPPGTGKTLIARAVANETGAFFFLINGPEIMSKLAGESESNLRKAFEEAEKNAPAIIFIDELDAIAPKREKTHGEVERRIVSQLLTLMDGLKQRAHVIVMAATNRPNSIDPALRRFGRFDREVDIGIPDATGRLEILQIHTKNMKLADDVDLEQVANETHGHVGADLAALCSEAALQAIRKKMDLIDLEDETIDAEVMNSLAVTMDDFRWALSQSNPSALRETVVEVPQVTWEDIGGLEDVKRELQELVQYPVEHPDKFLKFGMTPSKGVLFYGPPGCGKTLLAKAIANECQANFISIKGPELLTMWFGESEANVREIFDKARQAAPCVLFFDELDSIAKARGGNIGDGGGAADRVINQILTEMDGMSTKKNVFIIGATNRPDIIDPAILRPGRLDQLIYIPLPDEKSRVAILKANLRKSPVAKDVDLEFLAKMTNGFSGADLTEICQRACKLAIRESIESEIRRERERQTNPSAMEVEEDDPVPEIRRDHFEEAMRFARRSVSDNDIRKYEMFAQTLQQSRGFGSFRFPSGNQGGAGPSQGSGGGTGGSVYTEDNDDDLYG

A549 cells [4] = experiment: Intracellular compound concentration determination
p97 T688A mutant = p97 T688A mutant (Homo sapiens, UniProt P55072, T688A); experiment: p97 ATPase activity assay, T688A mutant; assay type: biochemical
p97 T688A mutant, sequence (P55072 whole entry T688A): as the sequence (P55072 whole entry) above, with T688A counted along it

WT p97 [5] = molecular target: T1, WT p97 (Homo sapiens, UniProt P55072); experiment: p97 ATPase activity assay, WT; assay type: biochemical
T1 sequence (P55072 whole entry): as the sequence (P55072 whole entry) above

A549 cells [6] = test system: A549 cells
WT p97 [7] = molecular target: T1, WT p97; experiment: Thermal shift assay; assay type: binding; conditions: TSA, WT compared with N660K and T688A

In the case of `Cc1cc2c(C(N)=O)cccc2n1-c1nc2c(c(NCc3ccccc3)n1)COCC2` [CB-5083], the IC50 (seven cancer lines) is reported as 500 to 4000 nM, the “changes in biomarkers (K48 ubiquitination, ATF4, CHOP, p62)” value (CB-R-HCT116 cells) is reported as “no effects on these biomarkers” and the “IC50 increase toward D649A/T688A vs WT p97” value [1] is reported as “about 400 fold”. The inhibition of proliferation ([2]; CB-R-HCT116, 10.5 μM) was “only slightly inhibited”, the “sensitivity of CB-R-HCT116 compared with parental HCT116” value [2] was “unaffected” and the “changes in biomarkers (K48 ubiquitination, ATF4, CHOP, p62)” value (HCT116 cells) was “accumulation of K48 ubiquitination, ATF4 and CHOP”. The “mutants most resistant to inhibition” value [3] was “N660K and T688A are the most resistant”.

`COc1cccc2c(NCc3ccccc3)nc(-n3c(N)nc4ccccc43)nc12` [ML240] was tested, and the “mutants most resistant to inhibition” value [3] was “N660K and T688A are the most resistant”.

For `c1ccc(CNc2nc(N3CCOc4ccccc43)nc3c2CCCC3)cc1` [ML241], the “mutants most resistant to inhibition” value [3] was “N660K and T688A are the most resistant”.

In the case of `Cc1cc(OCc2nnc(SC3CCCC3)n2-c2cccnc2)ccc1-c1ccc(S(C)(=O)=O)cc1` [NMS-873], the mechanism of inhibition (p97 ATPase) is reported as “noncompetitive inhibitor”, the IC50 (seven cancer lines) is reported as 500 to 4000 nM and the intracellular concentration reached (A549 cells [4]) is reported as “millimolar”. The “sensitivity of CB-R-HCT116 compared with parental HCT116” value [2] was “slightly more sensitive”.

With `CC(C)N1CCN(CCNC2CCN(c3cccc(-c4cc5cc(F)ccc5[nH]4)c3)CC2)CC1` [UPCDC-30245] the mechanism of inhibition (p97 ATPase) was “noncompetitive inhibition”, the “fold resistance of T688A (IC50 increase vs WT)” value (p97 T688A mutant) was 3 fold and the “fold less potent than NMS-873 in the ATPase activity assay” value (WT p97 [5]; WT p97) was 12 fold. The IC50 (WT p97 [5]; read-out: IC50 toward WT p97 ATPase activity, biochemical assay) was 300 nM, the “potency at inhibiting cell proliferation compared with NMS-873” value (seven cancer lines; HT29 cells) was “more potent” and the intracellular concentration reached (A549 cells [6]) was “millimolar”. The “time to steady-state intracellular concentration” value (A549 cells [6]) was 3 h, the “intracellular concentration relative to NMS-873” value (A549 cells [4]; 5 μM) was 12 fold and the “effect on Tm of WT, N660K and T688A p97” value (WT p97 [7]) was “did not stabilize WT or either mutant p97 protein”. For the same compound, the “IC50 increase toward D649A/T688A vs WT p97” value [1] was 2 fold and the “sensitivity of CB-R-HCT116 compared with parental HCT116” value [2] was “similarly sensitive”.
